In this assay the target is T1, S1PR1 (Homo sapiens, UniProt P21453).
T1 construct: expressed in transfected cells
The assay can be described thus: In vitro S1PR1 agonistic activity, PathHunter cell line, chemiluminescent detection. The format is cell-based. The note with it: for EC50: 90-180 min at 37° C.; for Emax: % activity vs maximum control ligand. On the procedure: Test Embodiment 1: In Vitro Evaluation of the Agonistic Activity of the Compounds of the Present Disclosure on S1PR1
Experimental objective: to detect the agonistic activity of compounds on S1PR1
I. Cell Treatment • 1. A PathHunter cell line was thawed according to standard procedures; • 2. the cells were inoculated in a 20 μL 384-well microplate and incubated at 37° C. for appropriate time.
II. Agonist • 1. For agonist determination, cells were incubated with samples to be tested to induce a reaction; • 2. a storage solution to be tested was 5-fold diluted into a buffer; • 3. 5 μL of the 5-fold dilution was added to the cells and incubated at 37° C. for 90-180 minutes. The vehicle concentration was 1%.
III. Signal Detection • 1. 12.5 μL or 15 μL of PathHunter detection reagent at a volume ratio of 50% was added at a time, and then incubated at room temperature for 1 hour to generate a detection signal; • 2. the microplate was read with a PerkinElmer Envision™ instrument for chemiluminescent signal detection.
IV. Data Analysis • 1. Activity analysis of the compound was carried out by using CBIS data analysis kit (ChemInnovation, CAA); • 2. calculation formula: % activity=100%×(average test sample RLU−average vehicle RLU)/(average maximum control ligand−average vehicle RLU)

Where a name gives a salt, the structure may show the parent alone.

T1 sequence (P21453 whole entry): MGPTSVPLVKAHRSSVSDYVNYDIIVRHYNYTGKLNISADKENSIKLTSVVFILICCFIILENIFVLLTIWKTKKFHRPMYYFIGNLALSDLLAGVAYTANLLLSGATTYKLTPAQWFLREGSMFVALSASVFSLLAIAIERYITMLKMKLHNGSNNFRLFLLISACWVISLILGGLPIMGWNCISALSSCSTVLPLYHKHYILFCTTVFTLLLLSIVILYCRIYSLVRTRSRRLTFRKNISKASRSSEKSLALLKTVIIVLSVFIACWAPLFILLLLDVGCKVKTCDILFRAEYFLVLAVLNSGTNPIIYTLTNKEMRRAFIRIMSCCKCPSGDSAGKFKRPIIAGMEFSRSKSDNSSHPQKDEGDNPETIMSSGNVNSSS

What is called EC50 is the concentration at which the effect is half-maximal. Read a low EC50 as a more potent agent. As a reminder, the Emax is the size of the effect at its maximum, as opposed to the concentration needed. `CC(C)Oc1ccc(-c2nc(-c3cccc4c3CCC43CCN(C(=O)CO)C3)no2)cc1Cl` (stereo not drawn) [Compound 11] registered an EC50 of 1.78 nM and an Emax of 84.6%.
The corresponding values for `CC(C)Oc1ccc(-c2ncc(-c3cccc4c3CCC43CCN(CC4(C(=O)O)CC4)C3)cn2)cc1C#N` (stereo not drawn) [Hydrochloride of compound 25] are 11.5 nM and 82.1%.
On the same counts, the results for `COCC(=O)N1CCC2(CCc3c(-c4noc(-c5ccc(OC(C)C)c(C#N)c5)n4)cccc32)C1` (stereo not drawn) [Compound 3] are 0.129 nM and 88.6%.
On the same counts, the results for `N#Cc1cc(-c2nc(-c3cccc4c3CCC43CCN(C(=O)CO)C3)no2)ccc1OC1CCCC1` (stereo not drawn) [Compound 9] are 2.15 nM and 75.8%.
The compound `CC(C)Oc1ccc(-c2nc(-c3cccc4c3CCC43CCN(C(=O)CC#N)C3)no2)cc1C#N` (stereo not drawn) [Compound 4] yielded an EC50 of 0.107 nM and an Emax of 99.4%.
The corresponding values for `CC(C)Cc1ccc(-c2nc(-c3cccc4c3CCC43CCN(CC4(C(=O)O)CC4)C3)no2)cc1` (stereo not drawn) [Hydrochloride of compound 46] are 5.76 nM and 105%.
On the same counts, the results for `CC(C)Oc1ccc(-c2ncc(-c3cccc4c3CCC43CCN(C(=O)CO)C3)o2)cc1C#N` (stereo not drawn) [Compound 21] are 21.7 nM and 70.8%.
On to `CC(C)Oc1ccc(-c2nc(-c3cccc4c3CCC43CCN(CC4(C(=O)O)CC4)C3)no2)cc1C(F)(F)F` (stereo not drawn) [Hydrochloride of compound 43], for which the EC50 was found to be 0.1 nM and the Emax is 108%.
On the same counts, the results for `O=C(O)C1(CN2CCC3(CCc4c(-c5noc(-c6ccc(C7CCCCC7)c(C(F)(F)F)c6)n5)cccc43)C2)CC1` (stereo not drawn) [Hydrochloride of compound 37] are 0.047 nM and 94.1%.
Compound `N#Cc1cc(-c2nc(-c3cccc4c3CCC43CCN(C(=O)CO)C3)no2)ccc1OC(F)F` (stereo not drawn) [Compound 17] came in with an EC50 of 8.59 nM and an Emax of 80.8%.
On the same counts, the results for `CC(C)Oc1ccc(-c2nnc(-c3cccc4c3CCC43CCN(C(=O)CO)C3)s2)cc1C#N` (stereo not drawn) [Compound 15] are 2.2 nM and 98.9%.
The corresponding values for `CC(C)Oc1ccc(-c2ncc(-c3cccc4c3CCC43CCN(C(=O)CO)C3)s2)cc1C#N` (stereo not drawn) [Compound 14] are 1.59 nM and 82.2%.
On the same counts, the results for `CC(C)Oc1ccc(-c2nc(-c3cccc4c3CCC43CCN(C(=O)[C@H](O)CO)C3)no2)cc1C#N` (stereo partly drawn) [Hydrochloride of compound 44] are 0.72 nM and 104%.
The compound `CC(C)Oc1ccc(-c2nc(-c3cccc4c3CCC43CCN(C(=O)CCC(=O)O)C3)no2)cc1C#N` (stereo not drawn) [Compound 5] gave an EC50 of 0.0688 nM and an Emax of 85.1%.
On to `O=C(O)C1(CN2CCC3(CCc4c(-c5noc(-c6ccc(C7CCCC7)c(C(F)(F)F)c6)n5)cccc43)C2)CC1` (stereo not drawn) [Hydrochloride of compound 38], for which the EC50 amounted to 0.041 nM and the Emax worked out at 100%.
On the same counts, the results for `CC(C)Oc1ccc(-c2ncc(-c3cccc4c3CCC43CCN(CC4(C(=O)O)CC4)C3)s2)cc1C#N` (stereo not drawn) [Hydrochloride of compound 26] are 4.47 nM and 73.8%.
On the same counts, the results for `CC(C)Oc1ccc(-c2nc(-c3cccc4c3CCC43CCN(C(=O)CO)C3)ns2)cc1C#N` (stereo not drawn) [Compound 20] are 9.39 nM and 90.4%.
On the same counts, the results for `CC(C)Oc1ccc(-c2ncc(-c3cccc4c3CCC43CCN(C(=O)CO)C3)cn2)cc1C#N` (stereo not drawn) [Compound 18] are 4.06 nM and 84.2%.
In turn, `CC(C)Oc1ccc(-c2nc(-c3cccc4c3CCC43CCN(C(=O)CO)C3)no2)cc1Br` (stereo not drawn) [Compound 10] returned an EC50 of 1.31 nM and an Emax of 101%.
Turning to `CC(C)Oc1ccc(-c2ncc(-c3cccc4c3CCC43CCN(CC4(C(=O)O)CC4)C3)o2)cc1C#N` (stereo not drawn) [Hydrochloride of compound 27], the midpoint of the response, the EC50, lay at 9.78 nM and the Emax came to 63.4%.
On the same counts, the results for `CC(C)Oc1ncc(-c2nc(-c3cccc4c3CCC43CCN(CC4(C(=O)O)CC4)C3)no2)cc1Cl` (stereo not drawn) [Hydrochloride of compound 39] are 3.46 nM and 144%.
Consider `CC(C)Nc1ncc(-c2nc(-c3cccc4c3CCC43CCN(C(=O)CO)C3)no2)cc1C#N` (stereo not drawn) [Compound 13], for which the EC50 stood at 10.7 nM and the Emax amounted to 77.8%.
Regarding `CC(C)Oc1ccc(-c2nc(-c3cccc4c3CCC43CCN(C(=O)CN)C3)no2)cc1C#N` (stereo not drawn) [Hydrochloride of compound 6], the EC50 amounted to 0.865 nM and the maximal response (Emax) came to 115%.
In the case of `CC(C)Oc1ccc(-c2nsc(-c3cccc4c3CCC43CCN(C(=O)CO)C3)n2)cc1C#N` (stereo not drawn) [Compound 16], the EC50 amounted to 14.4 nM and the Emax worked out at 77.8%.
On the same counts, the results for `CC(C)Oc1ccc(-c2cnc(-c3cccc4c3CCC43CCN(C(=O)CO)C3)cn2)cc1C#N` (stereo not drawn) [Compound 19] are 3.25 nM and 77.8%.
The corresponding values for `CC(C)Oc1ccc(-c2nnc(-c3cccc4c3CCC43CCN(CC4(C(=O)O)CC4)C3)s2)cc1C#N` (stereo not drawn) [Hydrochloride of compound 28] are 1.32 nM and 77.7%.
For the compound `CC(C)Oc1ccc(-c2nc(-c3cccc4c3CCC43CCN(C(=O)CO)C3)no2)cc1C(F)F` (stereo not drawn) [Compound 12], the EC50 is 0.477 nM and the Emax turned out to be 87.6%.
On the same counts, the results for `CC(C)Oc1ccc(-c2nc(-c3cccc4c3CCC43CCN(CC4(C(=O)O)CC4)C3)ns2)cc1C#N` (stereo not drawn) [Hydrochloride of compound 24] are 4.99 nM and 87.1%.
On the same counts, the results for `CC(C)Oc1ccc(-c2nc(-c3cccc4c3CCC43CCN(C(=O)CS(C)(=O)=O)C3)no2)cc1C#N` (stereo not drawn) [Compound 7] are 0.123 nM and 90.7%.
On the same counts, the results for `CC(C)Oc1ccc(-c2nc(-c3cccc4c3CCC43CCN(CC4(C(=O)O)CCC4)C3)no2)cc1C#N` (stereo not drawn) [Hydrochloride of compound 23] are 0.0353 nM and 68.3%.

These data come from US11760751B2, “Benzo 2-azaspiro[4.4]nonane compound and use thereof” (HELIOEAST PHARMACEUTICAL CO., LTD., priority 2020, dated 2023).
